According to patent US20070081951A1, “Prevention of dental plaque and dental calculus in animals” (priority 2005, published 2007):

Experiments:
dental plaque in cats = experiment: Example 3: antimicrobial rinses in cats, 4-week dental plaque formation; type: in vivo; conditions: 4-week test periods, clinical plaque grading
Method: The presence of dental plaque was assessed clinically by disclosing the plaque with an aqueous solution containing 1.5% D&C Red #28, removing the excess disclosant by spraying with tap water, and then determining the amount of plaque present on the occlusal and gingival halves of the buccal surface of each tooth using the following numerical scale: 0=no observable plaque; 1=scattered plaque covering <24% of the tooth surface; 2=plaque covering between 25 and 49% of the tooth surface; 3=plaque covering between 50 and 74% of the tooth surface; and 4=plaque covering 75% or more of the tooth surface. The plaque intensity or thickness was assessed for each area using the following subjective numerical scale: 1=light or thin layer of plaque; 2=moderate thickness of about 1 mm; and 3=heavy or thick layer of plaque in excess of 1 mm in thickness. The results of the assessments were summarized for each animal by multiplying the plaque coverage score by the intensity factor for each occlusal and gingival segment of each tooth, summing the scores for the occlusal and gingival segments to obtain an individual tooth score, and summing the individual tooth scores and dividing by the number of teeth graded.
The treatments were applied as rinses with 4-week test periods using the same procedures as described for Example 2. The amount of plaque present at the conclusion of the test period was graded clinically using the numerical scale described previously.

[1] = tested on: Actinomyces viscosus (AV); experiment: Zones of inhibition of growth on TSA agar plates, Actinomyces viscosus (AV); type: cell-based; conditions: for Zones of Inhibition of Growth, AV: 20 ul specimen on TSA agar lawn, 37° C., 5% CO2, read at 24 and 48 h, CPC 0.05%, CHX 0.1%, acids 1% (wt. %)
Method: (§1) This study was conducted to determine whether anti-calculus agents inhibit the antimicrobial activity of cetyl pyridium chloride […] and chlorhexidine (CHX).
(§2) Experimental Design: TSA agar plates were individually swabbed with fresh 24 h broth cultures of Streptococcus mutans (TH16), Streptococcus parasanguis (FW213) and Actinomyces viscosus (AV) to provide a confluent lawn of bacterial growth. Five minutes after swabbing the plates (to allow the inoculum to absorb into the agar), 20 ul of each test specimen (see below) was placed onto designated places on the plates and allowed to absorb into the agar. The plates were incubated agar-side up at 37° C. in 5% CO2 for 48 h. Plates were examined at 24 and 48 h for zones of inhibition of growth for each bacterial species. The diameter of each zone was measured in mm. The zones of inhibition of each mixture (anti-calculus and antimicrobial agents) were compared to the zones of each agent separately. If the zones of the mixtures were the same size (or larger) than the inhibition zones from the antimicrobial agent alone then there was no inhibition of antimicrobial activity by the anti-calculus agent.
(§3) Test Specimens: There were 12 different samples/test specimens used in this experiment. Test groups included (concentrations are wt. %): cetyl pyridium chloride ([…]; commercially available from ICN Biomedicals, Inc., Aurora, Ohio) at a concentration of 0.05%; CPC at 0.05%+1.0% malic acid; CPC at 0.05%+1% fumaric acid; CPC at 0.05%+1% citric acid; chlorhexidine (CHX; commercially available ICN Biomedicals, Inc., Aurora, Ohio) at 0.1% alone; CHX at 0.1%+1% malic acid; CHX at 0.1%+1% fumaric acid; CHX at 0.1%+1% citric acid; 1% malic acid; 1% fumaric acid; 1% citric acid.
(§4) Results: See Table 1 (below). This study was designed to determine whether or not the polycarboxylic acids (anti-calculus agents) altered the activity of the anti-microbial agents. Decreases in the width of the zone of inhibition when the polycarboxylic acid is combined with the antimicrobial agent, as compared to the width of the zone of inhibition for the antimicrobial agent alone, is an indication that the polycarboxylic acid reduced the activity of the anti-microbial agent. Differences in the width of the zone of inhibition of ±3 mm are not considered to be significant.

[2] = tested on: Streptococcus parasanguis (FW213); experiment: Zones of inhibition of growth on TSA agar plates, Streptococcus parasanguis (FW213); type: cell-based; conditions: for Zones of Inhibition of Growth, FW213: 20 ul specimen on TSA agar lawn, 37° C., 5% CO2, read at 24 and 48 h, CPC 0.05%, CHX 0.1%, acids 1% (wt. %)
Method: as §1, §2, §3, §4

[3] = tested on: Streptococcus mutans (TH16); experiment: Zones of inhibition of growth on TSA agar plates, Streptococcus mutans (TH16); type: cell-based; conditions: for Zones of Inhibition of Growth, TH16: 20 ul specimen on TSA agar lawn, 37° C., 5% CO2, read at 24 and 48 h, CPC 0.05%, CHX 0.1%, acids 1% (wt. %)
Method: as §1, §2, §3, §4

[4] = zone of mixture vs antimicrobial agent alone, differences of ±3 mm not significant

| Compound | Reduction in the formation of dental plaque (dental plaque in cats) | Zones of Inhibition of Growth, AV [1] | Zones of Inhibition of Growth, FW213 [2] | Zones of Inhibition of Growth, TH16 [3] | Change of antimicrobial activity on combining with the polycarboxylic acids, A. viscosus [1, 4] | Change of antimicrobial activity on combining with the polycarboxylic acids, S. parasanguis [2, 4] | Change of antimicrobial activity on combining with the polycarboxylic acids, S. mutans [3, 4] |
| --- | --- | --- | --- | --- | --- | --- | --- |
| CCCCCCCC(=O)O [caprylic acid] | 10.2% | – | – | – | – | – | – |
| O=C(O)CC(O)C(=O)O (stereo not drawn) [M (malic acid), malic acid] | – | 0 mm | 0 mm | Weak* (Weak = very slight activity; <1 mm) | – | – | – |
| [F][Sn][F] [stannous fluoride] | no reduction | – | – | – | – | – | – |
| [H]/N=C(\N/C(=N/[H])NCCCCCCNC(=N)NC(=N)Nc1ccc(Cl)cc1)Nc1ccc(Cl)cc1 [CHX alone, chlorhexidine gluconate] | – | 20 mm | 13 mm | 6 mm | decreased by the presence of fumaric acid | not altered | not altered |
| O=C(O)CC(O)(CC(=O)O)C(=O)O [C (citric acid), citric acid] | – | 0 mm | 0 mm | Weak* (Weak = very slight activity; <1 mm) | – | – | – |
| Oc1cc(Cl)ccc1Oc1ccc(Cl)cc1Cl [Triclosan] | 14.8% | – | – | – | – | – | – |
| O=C(O)/C=C/C(=O)O [F (fumaric acid), fumaric acid] | – | 0 mm | 0 mm | Weak* (Weak = very slight activity; <1 mm) | – | – | – |
